One series has as its target Btk kinase (Homo sapiens (Human), UniProt Q06187). Briefly: Btk kinase enzymatic activity assay (HTRF). The class given is biochemical. To be noted: Table 1; read-out: Btk IC50. On the procedure:
The half inhibition concentrations (IC50 values) of the compounds disclosed herein on Btk were determined at both enzymatic level and cellular level: the ability of the compounds to inhibit the activity of Btk kinase was determined in an enzymtic activity assay, and the inhibitory effect of the compounds on BCR-induced calcium flux in cells was determined in a cellular function assay.
(§1) The compounds were gradiently diluted 3 folds starting from 1 mM with 100% DMSO (totally 11 concentrations). 4 μL of each sample with a different concentration was added into 96 μL of reaction buffer (50 mM HEPES, pH 7.4, 10 mM MgCl2, 1 mM EGTA, 0.01% Tween-20, 0.005% BAS, 2 mM DTT). […] The mixture was centrifuged to mix well, followed by adding 2.5 μL of a mixture of ATP (final concentration designated as Km) and TK petide (HTRF® KinEASE™-TK, Cisbio) to initiate the reaction (total reaction volume being 10 μL). […] The enzyme activity for each compound was determined at 11 concentrations, and IC50 values were obtained by GraFit Software 6.0 (Erithacus Software).
(In general: Time-resolved FRET reads energy transfer from a long-lived donor to a nearby acceptor.)

A further series has as its target ITK kinase (Homo sapiens (Human), UniProt Q08881). As to the kind of experiment: ITK kinase enzymatic assay (same HTRF method as BTK). In kind it is biochemical. As to conditions: Table 1; read-out: Itk IC50. Here is the method: as §1
In vitro activity in inhibiting ITK kinase was determined similar to that in respect of BTK kinase.

In the next series the test system is OCI-LY-10 cells. As to the kind of experiment: Efficacy in subcutaneously xenografted tumor model in mice. In kind it is in vivo, CB-17 SCID mice. On the procedure:
SPF grade female CB-17 SCID mice (4-5 week) were used. 0.1 ml of OCI-LY-10 cells suspended in serum-free medium (containing 5×10^6 cells, 30% Matrigel) were injected subcutaneously in both the left and the right flanks of mice. Mice were grouped and numbered when the average tumor volumes were more than 100 mm3, and the body weights and tumor volumes were determined. The mice were randomly grouped according to tumor volumes, and appropriate adjustments were made so that the average body weight in each group is on the same level. Animals were dosed orally on the same day when they were grouped, and body weights and tumor volumes were measured twice a week. Relative tumor growth (T/C) and Tumor growth inhibition (TGI) were the major test indeces.
The equation for calculating the tumor volume is V=0.5×a×b^2, wherein v is the tumor volume, a and b are the length and the width of the tumor, respectively. The relative tumor volume (RTV) was calculated according to the tumor volume with the equation RTV=Vt/V0, wherein V0 was the tumor volume at the time when the animals were grouped, and Vt was the tumor volume at indicated time points. The equation for calculating the relative tumor proliferation rate was T/C (%)=TRTV/CRTV*100%. (TRTV was the RTV of treated group, and CRTV was the RTV of control group).
The equation for calculating the tumor growth inhibition rate was TGI (%)=(1−(tumor volume of the treated group−tumor volume of the treated group at the time when the animals were grouped)/(tumor volume of the control group−tumor volume of the control group at the time when the animals were grouped))*100%.

The nature of series [1]: Toxicity test in mice (7-day oral administration). To be noted: for Average body weight of mice / Changes (%) in mice body weight in treated group over control group: 1000 mg/kg oral once a day. The class given is in vivo, CD-1 (ICR) mice. From the text: Body weights and conditions of mice were monitored every day, during which all mice were not fasting.
Setting [2] is: 1000 mg/kg oral once a day for 7 days.

Molecules are shown by their SMILES.

Sequence of Btk kinase (Q06187 whole entry): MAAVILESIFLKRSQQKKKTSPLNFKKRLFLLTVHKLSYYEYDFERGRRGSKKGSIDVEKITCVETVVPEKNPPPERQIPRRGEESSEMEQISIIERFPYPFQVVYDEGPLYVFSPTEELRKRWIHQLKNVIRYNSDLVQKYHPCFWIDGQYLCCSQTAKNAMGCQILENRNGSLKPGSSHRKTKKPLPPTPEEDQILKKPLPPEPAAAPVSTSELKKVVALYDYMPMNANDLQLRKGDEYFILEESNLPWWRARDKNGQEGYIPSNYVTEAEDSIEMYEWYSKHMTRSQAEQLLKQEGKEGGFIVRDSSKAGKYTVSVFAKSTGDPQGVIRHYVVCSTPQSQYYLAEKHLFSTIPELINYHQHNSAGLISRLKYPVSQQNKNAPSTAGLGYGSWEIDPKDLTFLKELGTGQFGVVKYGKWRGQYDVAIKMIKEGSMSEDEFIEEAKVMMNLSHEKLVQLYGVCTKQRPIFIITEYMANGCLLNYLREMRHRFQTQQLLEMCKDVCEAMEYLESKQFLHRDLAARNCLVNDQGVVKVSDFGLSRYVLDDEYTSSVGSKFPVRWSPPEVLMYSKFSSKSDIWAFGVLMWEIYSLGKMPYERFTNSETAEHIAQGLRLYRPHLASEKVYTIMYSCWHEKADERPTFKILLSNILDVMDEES
Sequence of ITK kinase (Q08881 whole entry): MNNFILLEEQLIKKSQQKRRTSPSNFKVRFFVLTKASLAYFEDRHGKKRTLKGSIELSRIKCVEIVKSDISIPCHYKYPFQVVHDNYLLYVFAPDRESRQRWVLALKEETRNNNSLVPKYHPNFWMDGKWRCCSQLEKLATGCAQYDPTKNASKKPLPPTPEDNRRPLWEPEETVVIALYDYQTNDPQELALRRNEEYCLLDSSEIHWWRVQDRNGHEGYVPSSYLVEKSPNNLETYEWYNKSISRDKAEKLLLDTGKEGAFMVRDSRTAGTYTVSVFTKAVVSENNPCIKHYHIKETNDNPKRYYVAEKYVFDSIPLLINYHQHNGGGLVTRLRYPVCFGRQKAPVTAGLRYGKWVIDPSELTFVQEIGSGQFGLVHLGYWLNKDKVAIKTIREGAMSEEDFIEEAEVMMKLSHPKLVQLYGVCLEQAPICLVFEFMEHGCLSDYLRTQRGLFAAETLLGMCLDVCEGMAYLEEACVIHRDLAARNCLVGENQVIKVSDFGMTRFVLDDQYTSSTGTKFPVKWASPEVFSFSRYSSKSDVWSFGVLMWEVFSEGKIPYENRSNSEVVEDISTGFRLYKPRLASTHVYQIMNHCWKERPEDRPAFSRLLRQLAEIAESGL

As a reminder, the IC50 is the point on the concentration scale where inhibition reaches its midpoint. As to `C=CS(=O)(=O)N1CCC[C@@H](n2nc(-c3ccc(Oc4ccccc4)cc3)c(C(N)=O)c2N)C1` [Example 1, (R)-5-amino-3-(4-phenoxyphenyl)-1-(1-(vinylsulfonyl)piperidin-3-yl)-1H-pyrazole-4-carboxamide], the IC50 at Btk kinase and on ITK kinase was under 100 nM throughout.
As to `NC(=O)c1c(-c2ccc(Oc3ccccc3)cc2)nn([C@@H]2CCN(C/C=C/C(=O)O)C2)c1N` [Example 10, (R,E)-4-(3-(5-amino-4-carbamoyl-3-(4-phenoxyphenyl)-1H-pyrazol-1-yl)pyrrolidin-1-yl)but-2-enoic Acid], the figures for the IC50 on Btk kinase and at ITK kinase were under 100 nM and over 1000 nM, respectively.
Regarding `NC(=O)c1c(-c2ccc(Oc3ccccc3)cc2)nn([C@@H]2CCN(C(=O)/C=C/CN3CCCCC3)C2)c1N` [Example 5, (R,E)-5-amino-3-(4-phenoxyphenyl)-1-(1-(4-(piperidin-1-yl)but-2-enoyl)pyrrolidin-3-yl)-1H-pyrazole-4-carboxamide], the IC50 was under 100 nM on Btk kinase and over 1000 nM on ITK kinase.
With `NC(=O)c1c(-c2ccc(Oc3ccccc3)cc2)nn([C@@H]2CCN(C(=O)/C=C/CO)C2)c1N` [Example 15, (R,E)-5-amino-1-(1-(4-hydroxybut-2-enoyl)pyrrolidin-3-yl)-3-(4-phenoxyphenyl)-1H-pyrazole-4-carboxamide], the IC50 at Btk kinase is under 100 nM; at ITK kinase, over 1000 nM.
Consider `C=CS(=O)(=O)N1CC[C@@H](n2nc(-c3ccc(Oc4ccccc4)cc3)c(C(N)=O)c2N)C1` [Example 2, (R)-5-amino-3-(4-phenoxyphenyl)-1-(1-(vinylsulfonyl)pyrrolidin-3-yl)-1H-pyrazole-4-carboxamide], for which the IC50 at Btk kinase and at ITK kinase was under 100 nM in each case.
With `CS(=O)(=O)NC/C=C/C(=O)N1CC[C@@H](n2nc(-c3ccc(Oc4ccccc4)cc3)c(C(N)=O)c2N)C1` [Example 14, (R,E)-5-amino-1-(1-(4-(methylsulfonamido)but-2-enoyl)pyrrolidin-3-yl)-3-(4-phenoxyphenyl)-1H-pyrazole-4-carboxamide], the 50% inhibitory concentration (IC50) on Btk kinase is under 100 nM; at ITK kinase, over 1000 nM.
With `C/C=C/C(=O)N1CC[C@@H](n2nc(-c3ccc(Oc4ccccc4)cc3)c(C(N)=O)c2N)C1` [Example 7, (R,E)-5-amino-1-(1-(but-2-enoyl)pyrrolidin-3-yl)-3-(4-phenoxyphenyl)-1H-pyrazole-4-carboxamide], at Btk kinase, the IC50 was under 100 nM. In addition, the IC50 at ITK kinase is over 1000 nM. In the series with OCI-LY-10 cells (100 mg/kg PO QD), the “TGI (%) Day 3” value was 33.27%, the “TGI (%) Day 8” value is on record as 19.00% and the “TGI (%) Day 11” value is 11.28%.
With `CC#CC(=O)N1CC[C@@H](n2nc(-c3ccc(Oc4ccccc4)cc3)c(C(N)=O)c2N)C1` [Example 16, (R)-5-amino-1-(1-(but-2-ynoyl)pyrrolidin-3-yl)-3-(4-phenoxyphenyl)-1H-pyrazole-4-carboxamide], the IC50 on Btk kinase is under 100 nM; on ITK kinase, over 1000 nM. In addition, the “difference in body weight change from control group” value in series [1] (setting [2]) is recorded as under 2%. In addition, the toxicity entry in series [1] (setting [2]) is given as “no toxicity”. For the same molecule, the “Average body weight of mice” value in series [1] (Day 1) was determined as 24.8 g; in series [1] (Day 2), 25.3 g; in series [1] (Day 3) it was 25.7 g; in series [1] (Day 4), 25.9 g; in series [1] (Day 5), 26.3 g; in series [1] (Day 6), 26.5 g. Further, the “Average body weight of mice” value in series [1] (Day 7) stood at 26.9 g. Further, the “Changes (%) in mice body weight in treated group over control group” value came out at 100.0% in series [1] (Day 1); 101.1% in series [1] (Day 2); 100.8% in series [1] (Day 3); 100.6% in series [1] (Day 4); 99.8% in series [1] (Day 5); 98.5% in series [1] (Day 6). Further, the “Changes (%) in mice body weight in treated group over control group” value in series [1] (Day 7) came out at 98.9%. Further, the results for the “TGI (%) Day 3” value in the series with OCI-LY-10 cells (50 mg/kg PO BID) and in the series with OCI-LY-10 cells (100 mg/kg PO QD) were 35.97% and 14.97%, respectively. The “TGI (%) Day 8” value in the series on OCI-LY-10 cells (50 mg/kg PO BID) is on record as 32.25%; in the series with OCI-LY-10 cells (100 mg/kg PO QD) it was 19.53%. Also, the figures for the “TGI (%) Day 11” value with OCI-LY-10 cells (50 mg/kg PO BID) and in the series on OCI-LY-10 cells (100 mg/kg PO QD) were 44.47% and 29.98%, respectively.
With `CC#CC(=O)N[C@H]1CC[C@@H](n2nc(-c3ccc(Oc4ccccc4)cc3)c(C(N)=O)c2N)CC1` [Example 18, 5-amino-1-((1s,4s)-4-(but-2-ynamido)cyclohexyl)-3-(4-phenoxyphenyl)-1H-pyrazole-4-carboxamide], the IC50 at Btk kinase was under 100 nM; at ITK kinase it was over 1000 nM.
On the same counts, the results for `CC(C)/C=C/C(=O)N1CC[C@@H](n2nc(-c3ccc(Oc4ccccc4)cc3)c(C(N)=O)c2N)C1` [Example 8, (R,E)-5-amino-1-(1-(4-methylpent-2-enoyl)pyrrolidin-3-yl)-3-(4-phenoxyphenyl)-1H-pyrazole-4-carboxamide] are under 100 nM and over 1000 nM.
On the same counts, the results for `NC(=O)c1c(-c2ccc(Oc3ccccc3)cc2)nn([C@@H]2CCN(C(=O)/C=C/CN3CCOCC3)C2)c1N` [Example 4, (R,E)-5-amino-1-(1-(4-morpholinobut-2-enoyl)pyrrolidin-3-yl)-3-(4-phenoxyphenyl)-1H-pyrazole-4-carboxamide] are under 100 nM and over 1000 nM.
Turning to `CN(C)C/C=C/C(=O)N1CC[C@@H](n2nc(-c3ccc(Oc4ccccc4)cc3)c(C(N)=O)c2N)C1` [Example 3, (R,E)-5-amino-1-(1-(4-(dimethylamino)but-2-enoyl)pyrrolidin-3-yl)-3-(4-phenoxyphenyl)-1H-pyrazole-4-carboxamide], the IC50 is under 100 nM at Btk kinase and over 1000 nM on ITK kinase.
Consider `C#CC(=O)N1CC[C@@H](n2nc(-c3ccc(Oc4ccccc4)cc3)c(C(N)=O)c2N)C1` [Example 17, (R)-5-amino-3-(4-phenoxyphenyl)-1-(1-propioloylpyrrolidin-3-yl)-1H-pyrazole-4-carboxamide], for which the IC50 on Btk kinase and on ITK kinase was under 100 nM in each case.
In the case of `CC(=O)OC/C=C/C(=O)N1CC[C@@H](n2nc(-c3ccc(Oc4ccccc4)cc3)c(C(N)=O)c2N)C1` [Example 13, (R,E)-4-(3-(5-amino-4-carbamoyl-3-(4-phenoxyphenyl)-1H-pyrazol-1-yl)pyrrolidin-1-yl)-4-oxobut-2-en-1-yl acetate], the 50% inhibitory concentration (IC50) was under 100 nM at Btk kinase and over 1000 nM at ITK kinase.
For `NC(=O)c1c(-c2ccc(Oc3ccccc3)cc2)nn([C@@H]2CCN(C(=O)/C=C/CN3CCCC3)C2)c1N` [Example 6, (R,E)-5-amino-3-(4-phenoxyphenyl)-1-(1-(4-(pyrrolidin-1-yl)but-2-enoyl)pyrrolidin-3-yl)-1H-pyrazole-4-carboxamide], the 50% inhibitory concentration (IC50) at Btk kinase was under 100 nM; on ITK kinase it was over 1000 nM.
Take `NC(=O)c1c(-c2ccc(Oc3ccccc3)cc2)nn([C@@H]2CCN(C(=O)/C=C/CBr)C2)c1N` [Example 12, (R,E)-5-amino-1-(1-(4-bromobut-2-enoyl)pyrrolidin-3-yl)-3-(4-phenoxyphenyl)-1H-pyrazole-4-carboxamide]: the concentration for half-maximal inhibition (IC50) was under 100 nM at Btk kinase and over 1000 nM at ITK kinase.
For `NC(=O)c1c(-c2ccc(Oc3ccccc3)cc2)nn([C@@H]2CCN(C(=O)/C=C\C(=O)O)C2)c1N` [Example 11, (R,Z)-4-(3-(5-amino-4-carbamoyl-3-(4-phenoxyphenyl)-1H-pyrazol-1-yl)pyrrolidin-1-yl)-4-oxobut-2-enoic Acid], the results for the IC50 at Btk kinase and at ITK kinase were under 100 nM and over 1000 nM, respectively.

The values are drawn from patent publication US10112922B2, “Inhibitor of bruton's tyrosine kinase” (Centaurus BioPharma Co., Ltd., priority 2014, dated 2018).
